Marks after values point to notes of the source that are not given here. Where a SMILES comes first, the peptide text is derived from it. The star is where a group is joined. Myristoyl = CCCCCCCCCCCCCC(=O)*
How the values were obtained:
[1] = Stability of test peptides in human BALF (LC/MS/MS, first order half-life); type: in vitro ADME; details: human BALF from COPD patients
Description: (§1) Various test peptides in human plasma, human BALF, and CF patient mucus were analyzed to determine the susceptability of the test peptide to proteolysis in the biological fluids. […] The samples were analyzed either on the same day as received or stored at −20° C. and analyzed within the following two days.
Samples of BALF collected from COPD patients were obtained and frozen. The BALF samples were thawed, mixed together and centrifuged at 10,000×g for 10 min at 4-8° C. The supernatant (0.9 mL) was spiked with 0.1 mL of 0.5 mg/mL solution of the peptide in 75 mM sodium acetate buffer at pH 7.0 and processed and analyzed as described above.
(§2) All samples were analyzed using LC/MS/MS (MDS/SCIEX, API 4000 Model). Chromatography was performed using a Phenomenex Luna C18 column, while mass spectrometry was performed using positive ion electrospray ionization.
(§3) Calibration standards were analyzed by LCMS at concentrations of 0.100 μg/mL, 1.00 μg/mL, 10.0 μg/mL, and 100 μg/mL for each peptide, with the exception of the calibration standards for peptides myr-PEPTIDE 106, PEPTIDE 106, PEPTIDE 106-NH2, PEPTIDE 106, and cyclic peptide, cyc-PEPTIDE 106, in human mucus, which were analyzed at concentrations of 0.100 μg/mL, 1.00 μg/mL, 10.0 μg/mL, and 75 μg/mL. Standards were prepared in 1% human BALF, plasma, or mucus in 50/50 water/acetonitrile mixture containing 0.2% formic acid. The instrument response values for each set of standards were fit using a 1/(concentration)^2 linear least-squares line. Sample concentrations were calculated using the slope and intercept of this line. Concentrations outside of the calibration range were determined by extrapolating the calibration curve.
Duplicate calibration standards were analyzed at a concentration of 50 μg/mL for each peptide. The instrument response values for each set of standards were fit through an intercept of 0 using an unweighted, linear least-squares line. Sample concentrations were calculated using the slope and intercept of this line.
For the analysis of peptide concentration in BALF samples, one 50 μg/mL calibration standard prepared in a mixture of BALF, water, acetonitrile, and formic acid was analyzed with each sample set.
(§4) Watson fits the log transformed data with a least-squares line to determine parameters such as Cmax (maximum concentration), intercept, rate constant, slope, and T1/2 (half-life). The resulting kinetic parameters were based on the linear fit, not the actual concentration values.
(§5) Time-zero calibration standards in solution were not included as part of the kinetic profiles.

[2] = test system: methacholine-induced mucin hypersecretion; assay: Methacholine-induced mucin hypersecretion in ovalbumin-sensitized mouse model of asthma, BAL mucin ELISA (Balb/C mice); type: in vivo; details: for Mucin Secretion % control: peptides at 100 μM; for Mucin Secretion % of control: Table IV
Excerpt: Experiments were designed to test whether or not the MANS peptide and other test peptides related thereto inhibit hypersecretion of mucin in murine airway in vivo. The ovalbumin-sensitized mouse model of allergic inflammation and asthma used in these studies was as described by Singer et al. (2004), supra. As a negative control, a control peptide containing an N-terminal myristoyl group and the same amino acids as MANS peptide but arranged in random order (i.e., the random N-terminal sequence, RNS, myristoyl-peptide 232) was tested alongside the proposed active peptides. BP2 mice, aged 6-8 wks, were immunized subcutaneously twice at weekly intervals with 1 μg of ovalbumin. After 14 days of sensitization, the animals were exposed to aerosolized ovalbumin, which causes a pronounced goblet cell hyperplasia after 72 hours. At the 72 hr time point, the secretagogue, methacholine ([…]) was delivered using a Buxco system nebulizer providing a fine aerosol for 90 seconds. Fifteen min prior to the secretagogue challenge, 50 μL of the test peptide, at 3 different concentrations (10 μM, 100 μM, or 140 μM), was administered by intratracheal route. The RNS peptide was tested at the highest dose level only (50 μL of 140 μM solution). […] Each experiment was carried out in 6 mice per point, and each set of experiments was repeated 3 times. To test strain-to-strain variations, the above experiment was repeated in Balb/C mice under similar protocol. Both stimulated and unstimulated mucin secretion, in mice treated with […] sodium acetate (data not shown), were identical to saline control. Following the methacholine challenge, the animals were sacrificed and bronchoalveolar lavage (BAL) performed on 6 animals per group for analysis of secreted mucin.
Mice were sacrificed by cervical dislocation, followed by rapid exposure of the trachea and insertion of a cannula through a small incision. Bronchoalveolar lavage (BAL) fluid was collected with 0.5 ml followed by 3×1 ml PBS containing PMSF (5 mM), EDTA (5 mM), and DTT (5 mM). BAL fluid was separated into cell-free and cell fractions via brief centrifugation prior to any analyses being performed. The cell-free supernatants were analyzed for the presence of mucin via an ELISA method using anti-mucin antibodies shown to react with mouse mucin. Specifically, a mouse anti-MUC5AC antibody that recognizes the carbohydrate portion of secreted mucin was used in these assays. Data generated from each BAL sample were normalized to total protein as determined by Bradford assay. Mucin content was expressed as the value obtained with the anti-mucin antibody minus that obtained with the non-immune control antibody. All ELISA data were statistically examined using a one-way ANOVA.

[3] = Qualitative solubility of test peptides in 0.5 N saline; type: physicochemical; details: pH 6.5, 20° C. (table title)
Description: Various test peptides (1 to 5 mg each) were weighed out accurately in individual 2 mL screw cap glass vials and aliquots of 25 μL of 0.5 N saline, pH 6.5, were added at 25° C. and ambient pressure. The solubility was evaluated visually. If the test peptide dissolves completely with the first aliquot of saline, its solubility was calculated and designated as more than the calculated amount. […] Similarly, if 1.7 mg of a test peptide fails to dissolve in 1.7 mL of 0.5 N saline, its solubility is stated as <1.0 mg/mL.

[4] = Stability of test peptides in human plasma (LC/MS/MS, first order half-life); type: in vitro ADME; details: human plasma, 37° C., 1st experiment, read-out: Plasma t1/2 (1st exp.) (converted)
Description: as §1
Fresh human blood samples were collected in citrate buffered vacuutrainers (in absence of EDTA or heparin). Red blood cells (RBC) were removed by centrifugation of the blood at 4000×g for 10 min at 4° C. Plasma aliquots (0.9 mL) were then spiked with 0.1 mL of 0.5 mg/mL solution of the test peptide in 75 mM sodium acetate buffer at pH 7.0 and incubated in a water bath maintained at 37° C. Duplicate aliquots of 10 μL, were withdrawn at 5, 15, 30, 60, and 180 minutes intervals and immediately “quenched” with 990 μL of a solution consisting of 50% acetonitrile+50% water containing 0.2% formic acid. The samples were then subjected to liquid chromatography-mass spectrometry (LCMS) analysis.
as §2
as §3, with “curve. […]” for “curve.”
For the analysis of peptide concentration in plasma, duplicate calibration standards were analyzed at a concentration of 25 μg/mL and 50 μg/mL for each peptide. The instrument response values for each set of standards were fit through an intercept of 0 using an unweighted, linear least-squares line. Sample concentrations were calculated using the slope and intercept of this line. Concentrations outside of the calibration range were determined by extrapolating the calibration curve.
as §4, §5

[5] = cerebrospinal or other body fluid, 1st experiment, read-out: BALF t1/2 (1st exp.) (converted)
[6] = cerebrospinal or other body fluid, 2nd experiment, read-out: BALF t1/2 (2nd exp.) (converted)
[7] = Table II, 50 μL intratracheal 15 min before methacholine

Row | Molecule | Mucin Secretion % control [2, 7] | solubility [3] | Mucin Secretion % control ([2]; Table III) | also measured
1 | CCCCCCCCCCCCCC(=O)NCC(=O)N[C@@H](C)C(=O)N[C@@H](CCC(N)=O)C(=O)N[C@@H](Cc1ccccc1)C(=O)N[C@@H](CO)C(=O)N[C@@H](CCCCN)C(=O)N[C@H](C(=O)N[C@@H](C)C(=O)N[C@@H](C)C(=O)N[C@@H](CCCCN)C(N)=O)[C@@H](C)O [myr-peptide 106-NH2] (Myristoyl-GAQFSKTAAK-NH2) | 29.3 % control | < 10 mg/mL |  | half-life [1, 5]: 10.5 h; half-life [1, 6]: 12.8 h; Mucin Secretion % of control ([2]; peptide 10 μM): 67*+ % of control; Mucin Secretion % of control ([2]; peptide 100 μM): 17** % of control
2 | CCCCCCCCCCCCCC(=O)NCC(=O)N[C@@H](C)C(=O)N[C@@H](CCC(N)=O)C(=O)N[C@@H](Cc1ccccc1)C(=O)N[C@@H](CO)C(=O)N[C@@H](CCCCN)C(=O)N[C@H](C(=O)N[C@@H](C)C(=O)N[C@@H](C)C(=O)N[C@@H](CCCCN)C(=O)NCC(=O)N[C@@H](CCC(=O)O)C(=O)O)[C@@H](C)O [myr-peptide 79] (Myristoyl-GAQFSKTAAKGE-OH) | 50 % control | > 2 mg/mL | 48 % control | 
3 | CCCCCCCCCCCCCC(=O)N[C@@H](C)C(=O)N[C@@H](CCCCN)C(=O)NCC(=O)N[C@@H](CCC(=O)O)C(=O)N[C@@H](C)C(=O)N[C@@H](C)C(=O)N[C@@H](C)C(=O)N[C@@H](CCC(=O)O)C(=O)N[C@@H](CCCNC(=N)N)C(=O)N1CCC[C@H]1C(=O)NCC(=O)N[C@@H](CCC(=O)O)C(=O)N[C@@H](C)C(=O)N[C@@H](C)C(=O)N[C@H](C(=O)N[C@@H](C)C(=O)O)C(C)C [myr-peptide 45] (Myristoyl-AKGEAAAERPGEAAVA-OH) |  | > 80 mg/mL | 35** % control | 
4 | CCCCCCCCCCCCCC(=O)NCC(=O)N[C@@H](C)C(=O)N[C@@H](CCC(N)=O)C(=O)N[C@@H](C)C(=O)N[C@@H](CO)C(=O)N[C@@H](CCCCN)C(=O)N[C@H](C(=O)N[C@@H](C)C(=O)N[C@@H](C)C(=O)N[C@@H](CCCCN)C(N)=O)[C@@H](C)O [myr-peptide 236-NH2] (Myristoyl-GAQASKTAAK-NH2) | 51 % control | < 10 mg/mL |  | half-life [1, 5]: 4.16 h; half-life [1, 6]: 4.08 h
5 | CCCCCCCCCCCCCC(=O)N[C@@H](CO)C(=O)N[C@@H](CCCCN)C(=O)N[C@H](C(=O)N[C@@H](C)C(=O)N[C@@H](C)C(=O)N[C@@H](CCCCN)C(=O)NCC(=O)N[C@@H](CCC(=O)O)C(=O)N[C@@H](C)C(=O)N[C@@H](C)C(=O)N[C@@H](C)C(=O)N[C@@H](CCC(=O)O)C(=O)N[C@@H](CCCNC(=N)N)C(=O)N1CCC[C@H]1C(=O)NCC(=O)N[C@@H](CCC(=O)O)C(=O)N[C@@H](C)C(=O)N[C@@H](C)C(=O)N[C@H](C(=O)N[C@@H](C)C(=O)O)C(C)C)[C@@H](C)O [myr-peptide 15] (Myristoyl-SKTAAKGEAAAERPGEAAVA-OH) |  | > 80 mg/mL | 38* % control | 
6 | Ac-GAQFSKTAAKGE-NH2 [Ac-peptide 79-NH2] |  | > 60 mg/mL |  | half-life [4]: 2.64 h
7 | H-GAQFSKTAAKGE-OH [peptide 79, GAQFSKTAAKGE] | 10 % control | > 60 mg/mL |  | 
8 | CCCCCCCCCCCCCC(=O)NCC(=O)N[C@@H](C)C(=O)N[C@@H](CCC(N)=O)C(=O)N[C@@H](Cc1ccccc1)C(=O)N[C@@H](CO)C(=O)N[C@@H](CCCCN)C(=O)N[C@H](C(=O)N[C@@H](CCCCN)C(=O)N[C@@H](C)C(=O)N[C@@H](CCCCN)C(=O)NCC(=O)N[C@@H](CCC(=O)O)C(=O)O)[C@@H](C)O [myr-peptide 234] (Myristoyl-GAQFSKTKAKGE-OH) | 8 % control | > 3 mg/mL |  | half-life ([1]; 1st experiment, read-out: BALF t1/2 (1st exp.) (converted)): 1.08 h
9 | H-GAQASKTAAKGE-OH [peptide 237, GAQASKTAAKGE] |  | > 80 mg/mL |  | Mucin Secretion % of control ([2]; peptide 10 μM): 67*+ % of control; Mucin Secretion % of control ([2]; peptide 100 μM): 8** % of control; half-life [4]: 0.49 h
10 | CCCCCCCCCCCCCC(=O)NCC(=O)N[C@@H](C)C(=O)N[C@@H](CCC(N)=O)C(=O)N[C@@H](Cc1ccccc1)C(=O)N[C@@H](CO)C(=O)N[C@@H](CCCCN)C(=O)N[C@H](C(=O)N[C@@H](C)C(=O)N[C@@H](C)C(=O)N[C@@H](CCCCN)C(=O)NCC(=O)N[C@@H](CCC(=O)O)C(=O)N[C@@H](C)C(=O)N[C@@H](C)C(=O)N[C@@H](C)C(=O)N[C@@H](CCC(=O)O)C(=O)O)[C@@H](C)O [myr-peptide 37] (Myristoyl-GAQFSKTAAKGEAAAE-OH) |  | > 2 mg/mL | 35** % control | 
